Reference: ChEMBL document CHEMBL1201862, “PubChem BioAssay data set” (2004)
The source made the active and inactive calls.

Experiments:
[1] = target: T1, Corticotropin-releasing factor receptor 2/Corticotropin-releasing factor-binding protein (Homo sapiens, UniProt P24387+Q13324); assay: Dose Response confirmation of uHTS hits for small molecule antagonists of the CRF-binding protein and CRF-R2 receptor complex.; type: functional; settings: read-out: IC50_Mean
T1 sequence (Q13324 whole entry): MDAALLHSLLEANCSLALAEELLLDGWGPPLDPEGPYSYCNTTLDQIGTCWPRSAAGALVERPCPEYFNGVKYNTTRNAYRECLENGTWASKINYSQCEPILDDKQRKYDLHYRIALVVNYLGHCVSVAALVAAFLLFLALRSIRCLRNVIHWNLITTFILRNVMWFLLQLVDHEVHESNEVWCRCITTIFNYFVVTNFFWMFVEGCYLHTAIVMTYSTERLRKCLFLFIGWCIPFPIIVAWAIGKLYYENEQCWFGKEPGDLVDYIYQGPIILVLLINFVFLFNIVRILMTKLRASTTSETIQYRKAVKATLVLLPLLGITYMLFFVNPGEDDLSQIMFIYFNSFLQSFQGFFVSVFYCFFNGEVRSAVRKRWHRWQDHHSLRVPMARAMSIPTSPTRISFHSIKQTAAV
T1 sequence (P24387 whole entry): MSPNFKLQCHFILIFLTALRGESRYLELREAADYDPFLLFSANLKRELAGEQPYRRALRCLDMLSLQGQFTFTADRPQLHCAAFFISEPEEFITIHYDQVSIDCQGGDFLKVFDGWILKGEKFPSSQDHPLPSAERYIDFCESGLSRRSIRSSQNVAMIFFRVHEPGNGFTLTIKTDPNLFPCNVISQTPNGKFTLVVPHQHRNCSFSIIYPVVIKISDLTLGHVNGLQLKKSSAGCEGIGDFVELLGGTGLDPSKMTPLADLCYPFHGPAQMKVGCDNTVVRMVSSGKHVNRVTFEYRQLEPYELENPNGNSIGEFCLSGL

[2] = target: T1, Corticotropin-releasing factor receptor 2/Corticotropin-releasing factor-binding protein; assay: activators of CRF receptor 2 with binding protein – uHTS hits, confirmation (AID 602473); type: functional; settings: read-out: EC50_Mean
Vero = assay: viability loss in Vero cells – cell-based, plate reader, cherry-pick samples, cytotoxicity control, dose response (AID 687020); type: functional; settings: Chlorocebus sabaeus
[3] = viability loss in CEM21 cells – cell-based, CellTiter-Glo luminescence, cherry-picked, cytotoxicity control for viral fusion inhibitor project, dose response (AID 652042); type: functional;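 note: potency for signal decrease meaning cytotoxicity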
[4] = NIH3T3 cell viability loss – ATP luminescence, mouse fibroblasts, counter-screen, dose response (AID 2010); type: functional, cell-based;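 note: cells exposed to compound for about 90 hours before reading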
[5] = blockers of HIV-1 ZM109 envelope-driven cell-cell fusion – HeLa effector, CEM target cells, luciferase, cherry-pick, dose response (AID 652058); type: functional, cell-based;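 note: luciferase signal from HIV-1 Env mediated cell-cell fusion of effector and target cells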
[6] = off-target signal loss in HeLa-CEM21 co-culture – HeLa F-luc CTL cells, cherry-picked, counter-screen for HIV-1 Env fusion inhibitor project, dose response (AID 652040); type: functional, cell-based;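 note: potency for signal decrease marking cytotoxic or nonspecific inhibition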
[7] = HIV-1 AD8 envelope cell-cell fusion blockers – cherry-pick, dose response (AID 652062); type: functional, cell-based;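 note: luciferase signal from cell-cell fusion driven by HIV-1 clade B AD8 Env; potency is for inhibitors of fusion seen as a drop in luminescence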
[8] = blockers of HIV-1 envelope-mediated cell-cell fusion – cherry-pick, dose response (AID 652057); type: functional, cell-based
[9] = Trypanosoma cruzi growth suppression in host cells – NIH3T3 host cells, beta-gal luminescence, confirmation (AID 2044); type: functional, cell-based;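 note: intracellular parasites grown in NIH/3T3 mouse fibroblasts as host cells; luminescent beta-galactosidase reporter signal from transgenic T. cruzi replicating inside host cells; inhibitors lower the luminescence signal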
[10] = human cervical cancer cell viability loss – 24 h, plate reader, dry powder, cytotoxicity control, dose response (AID 686928); type: functional, cell-based; settings: HeLa
[11] = anti-trypanosomal activity in BESM host cells – imaging, CA-I/72 strain, bovine embryo skeletal muscle, dry powder, dose response (AID 651885); type: functional, cell-based

## CCCn1c(=N)n(CC(O)COc2ccc(C)cc2)c2ccccc21 (stereo not drawn)
[1]
  IC50: > 47.1 µM (inactive)
[2]
  EC50: > 53 µM (inactive)
Vero
  AC50: 24.6 µM (active)

## CCN(CC(O)CON=C1c2ccccc2-c2ccccc21)S(=O)(=O)c1ccc(Cl)cc1 (stereo not drawn)
[3]
  AC50: 29.3 µM (active)
[4]
  EC50: > 60 µM (not active)
[5]
  AC50: 16.3 µM (active)
[6]
  AC50: 10.1 µM (active)
[7]
  AC50: 28.6 µM (active)
[8]
  AC50: 5.8 µM (active)
[9]
  EC50: 2.15 µM (active)

## O=c1c2ccccc2n(CC(O)CN2CCCCC2)c2ccccc12 (stereo not drawn)
cells
  AC50: 3.43 µM (active)

## O=c1ncn(-c2cccc(Cl)c2)c2cc(Cl)ccc12
[10]
  AC50: > 160 µM (inactive)

## CNC[C@@H]1Oc2c(NC(=O)c3ccncc3)cccc2C(=O)N(C(C)C)C[C@H]1C
[11]
  IC50: > 20 µM (inactive)
